Reference: PMC3914206

What was measured:
Format in all cases: binding
panel of 442 kinases [1] = target: T1, panel of 442 kinases (Homo sapiens, UniProt Q06187); details: Compound Concentration 10 µM
T1 construct: purchased KINOMEscan
Excerpt: (§1) We assessed the selectivity of members of this scaffold using the KINOMEscan methodology across a near comprehensive panel of 442 kinases [[18,27]].

panel of 442 kinases [2] = target: T2, panel of 442 kinases (Homo sapiens, UniProt P31751); details: Compound Concentration 10 µM
T2 construct: purchased KINOMEscan
T2 sequence (P31751 whole entry): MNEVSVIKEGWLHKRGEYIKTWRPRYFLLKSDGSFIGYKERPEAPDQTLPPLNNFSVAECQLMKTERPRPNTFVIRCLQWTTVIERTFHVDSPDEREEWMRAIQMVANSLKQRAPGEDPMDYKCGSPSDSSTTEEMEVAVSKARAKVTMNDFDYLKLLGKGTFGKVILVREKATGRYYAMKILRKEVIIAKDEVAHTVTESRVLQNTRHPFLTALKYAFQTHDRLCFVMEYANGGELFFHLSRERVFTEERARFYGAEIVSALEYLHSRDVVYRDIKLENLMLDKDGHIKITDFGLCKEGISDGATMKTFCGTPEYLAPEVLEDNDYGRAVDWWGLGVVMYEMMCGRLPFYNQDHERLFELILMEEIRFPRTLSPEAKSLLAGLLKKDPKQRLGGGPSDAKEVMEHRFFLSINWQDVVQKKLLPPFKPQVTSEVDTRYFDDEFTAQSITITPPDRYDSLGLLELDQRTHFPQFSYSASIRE
Excerpt: as §1

panel of 442 kinases [3] = target: T3, panel of 442 kinases (Homo sapiens, UniProt Q9H2K8); details: kinase TAOK3; compound concentration 10 µM
T3 construct: purchased KINOMEscan
T3 sequence (Q9H2K8 1-898): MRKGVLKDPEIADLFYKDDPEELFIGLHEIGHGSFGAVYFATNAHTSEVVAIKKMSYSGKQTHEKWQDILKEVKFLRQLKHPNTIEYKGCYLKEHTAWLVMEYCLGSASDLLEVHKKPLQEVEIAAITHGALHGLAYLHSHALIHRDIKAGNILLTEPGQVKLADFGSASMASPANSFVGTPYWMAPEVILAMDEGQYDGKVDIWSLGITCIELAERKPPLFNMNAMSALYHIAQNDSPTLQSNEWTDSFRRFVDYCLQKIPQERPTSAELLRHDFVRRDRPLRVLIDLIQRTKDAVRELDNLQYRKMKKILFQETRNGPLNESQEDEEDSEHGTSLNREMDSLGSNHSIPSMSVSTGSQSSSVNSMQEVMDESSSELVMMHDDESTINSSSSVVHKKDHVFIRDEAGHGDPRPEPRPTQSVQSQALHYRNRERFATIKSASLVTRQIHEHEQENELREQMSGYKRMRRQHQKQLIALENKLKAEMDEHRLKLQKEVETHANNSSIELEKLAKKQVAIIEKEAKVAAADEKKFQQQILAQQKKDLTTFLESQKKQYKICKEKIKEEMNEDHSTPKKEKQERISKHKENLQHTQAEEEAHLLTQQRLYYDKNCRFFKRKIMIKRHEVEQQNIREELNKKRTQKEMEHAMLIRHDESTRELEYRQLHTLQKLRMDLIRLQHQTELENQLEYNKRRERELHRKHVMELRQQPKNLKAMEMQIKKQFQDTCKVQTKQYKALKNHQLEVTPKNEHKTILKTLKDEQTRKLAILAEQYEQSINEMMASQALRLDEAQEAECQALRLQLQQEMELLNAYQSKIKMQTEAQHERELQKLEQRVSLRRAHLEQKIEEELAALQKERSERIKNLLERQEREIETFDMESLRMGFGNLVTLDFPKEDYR
Excerpt: as §1

T1 sequence (Q06187 whole entry): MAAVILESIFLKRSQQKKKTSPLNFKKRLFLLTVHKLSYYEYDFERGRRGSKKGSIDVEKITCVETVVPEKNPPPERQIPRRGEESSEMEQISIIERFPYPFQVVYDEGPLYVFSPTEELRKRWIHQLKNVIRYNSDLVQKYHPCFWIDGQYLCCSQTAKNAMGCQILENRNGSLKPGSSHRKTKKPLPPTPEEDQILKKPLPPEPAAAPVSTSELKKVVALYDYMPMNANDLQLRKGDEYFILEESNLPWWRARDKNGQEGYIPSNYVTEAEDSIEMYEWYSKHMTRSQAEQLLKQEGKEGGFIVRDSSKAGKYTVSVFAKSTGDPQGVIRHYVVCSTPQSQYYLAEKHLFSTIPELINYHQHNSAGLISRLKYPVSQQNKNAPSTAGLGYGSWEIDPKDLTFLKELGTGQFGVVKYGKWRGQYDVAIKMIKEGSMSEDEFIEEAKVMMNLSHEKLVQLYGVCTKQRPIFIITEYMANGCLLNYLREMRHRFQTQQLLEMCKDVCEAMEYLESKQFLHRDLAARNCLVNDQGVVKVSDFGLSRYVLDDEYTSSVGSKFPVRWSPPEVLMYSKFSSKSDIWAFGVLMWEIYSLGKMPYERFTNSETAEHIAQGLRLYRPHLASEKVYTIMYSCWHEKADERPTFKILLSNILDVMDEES

Compound | KINOMEscan: BTK (panel of 442 kinases [1]) | KINOMEscan: AKT2 (panel of 442 kinases [2]) | % Ctrl, TAOK3 (panel of 442 kinases [3]) [% Ctrl]
COc1cc(C(=O)N2CCC(N3CCN(C)CC3)CC2)ccc1Nc1ncc2c(n1)N(C)c1ccccc1C(=O)N2C [15 (LRRK2-IN-1)] | 100 | 100 | 24
COc1cc(C(=O)N2CCC(N3CCN(C)CC3)CC2)ccc1Nc1ncc2c(n1)N1CCc3cccc(c31)C(=O)N2C [Compound 24] | – | – | 100
COc1cc(C(=O)N2CCC(N3CCN(C)CC3)CC2)ccc1Nc1ncc2c(n1)N(C1CCCC1)c1ccccc1C(=O)N2C [Compound 25, 11-cyclopentyl-2-((2-methoxy-4-(4-(4-methylpiperazin-1-yl)piperidine-1-carbonyl)phenyl)amino)-5-methyl-5H-benzo[e]pyrimido[5,4-b][1,4]diazepin-6(11H)-one] | 98 | 100 | 100
CCOc1cc(C(=O)N2CCC(N3CCN(C)CC3)CC2)ccc1Nc1ncc2c(n1)N(C1CCCC1)c1ccccc1C(=O)N2C [Compound 26] | 100 | 100 | 82
